# From ChEMBL document CHEMBL1149453, “Thyroid receptor ligands. Part 4: 4'-amido bioisosteric ligands selective for the thyroid hormone receptor beta” (Bioorg Med Chem Lett, 2006)
# How the values were obtained:
# [1] = target: T1, Thyroid hormone receptor alpha (Homo sapiens, UniProt P10827); assay: Binding affinity to human thyroid hormone receptor alpha 1
# T1 sequence (P10827 whole entry): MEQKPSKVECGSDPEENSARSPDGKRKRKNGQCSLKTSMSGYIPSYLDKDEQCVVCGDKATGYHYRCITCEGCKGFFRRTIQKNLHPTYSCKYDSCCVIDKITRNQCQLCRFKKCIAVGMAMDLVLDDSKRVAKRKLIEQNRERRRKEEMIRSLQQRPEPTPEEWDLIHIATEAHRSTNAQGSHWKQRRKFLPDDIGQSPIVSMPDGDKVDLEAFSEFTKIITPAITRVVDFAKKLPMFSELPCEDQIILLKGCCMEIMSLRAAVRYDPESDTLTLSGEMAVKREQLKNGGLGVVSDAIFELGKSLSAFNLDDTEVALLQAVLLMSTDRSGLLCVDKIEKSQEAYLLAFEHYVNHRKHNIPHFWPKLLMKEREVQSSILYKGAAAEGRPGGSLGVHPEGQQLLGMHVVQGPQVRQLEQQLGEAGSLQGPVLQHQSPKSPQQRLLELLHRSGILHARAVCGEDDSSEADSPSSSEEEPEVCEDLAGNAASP
# [2] = target: Thyroid hormone receptor (Homo sapiens) (UniProt P10827+P10828); assay: Selectivity for human thyroid hormone receptor beta 1 over thyroid hormone receptor alpha 1; format: protein-complex assay
# [3] = target: T2, Thyroid hormone receptor beta (Homo sapiens, UniProt P10828); assay: Binding affinity to human thyroid hormone receptor beta 1
# T2 sequence (P10828 whole entry): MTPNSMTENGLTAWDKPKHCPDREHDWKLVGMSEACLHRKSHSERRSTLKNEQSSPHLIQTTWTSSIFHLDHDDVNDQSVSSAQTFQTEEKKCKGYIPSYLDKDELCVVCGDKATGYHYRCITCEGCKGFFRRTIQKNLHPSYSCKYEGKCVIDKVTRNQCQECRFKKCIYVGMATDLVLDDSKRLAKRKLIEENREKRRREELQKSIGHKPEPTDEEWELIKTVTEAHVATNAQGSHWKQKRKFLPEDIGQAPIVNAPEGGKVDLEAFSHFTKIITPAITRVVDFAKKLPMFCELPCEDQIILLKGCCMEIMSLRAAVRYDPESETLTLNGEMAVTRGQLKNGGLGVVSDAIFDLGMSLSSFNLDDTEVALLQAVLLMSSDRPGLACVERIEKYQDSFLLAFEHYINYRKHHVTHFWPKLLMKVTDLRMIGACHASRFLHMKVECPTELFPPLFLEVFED
SMILES,IC50 [1] [nM],Ratio IC50 [2],IC50 [3] [nM]
CCCC(CCC)C(=O)Nc1ccc(Oc2c(Cl)cc(CC(=O)O)cc2Cl)cc1Br,1200,16,45
CCC(CC)C(=O)Nc1ccc(Oc2c(Cl)cc(CC(=O)O)cc2Cl)cc1Br,610,22,16
CCC(=O)Nc1ccc(Oc2c(Cl)cc(CC(=O)O)cc2Cl)cc1Br,3300,14,140
CCCC(C)C(=O)Nc1ccc(Oc2c(Cl)cc(CC(=O)O)cc2Cl)cc1Br (stereo not drawn),1300,16,47

# Further compounds by falling IC50 [1], results first:
IC50 [1] [nM],Ratio IC50 [2],IC50 [3] [nM],SMILES
630,21,18,CC(C)C(=O)Nc1ccc(Oc2c(Cl)cc(CC(=O)O)cc2Cl)cc1Br
240,33,4.3,CCC(C)C(=O)Nc1ccc(Oc2c(Cl)cc(CC(=O)O)cc2Cl)cc1Br (stereo not drawn)
